Source: US20110039333A1, “DEFINED CONDITIONS FOR HUMAN EMBRYONIC STEM CELL CULTURE AND PASSAGE” (UNIVERSITY OF SOUTHERN CALIFORNIA, priority 2009, published 2011)

Legend:
hESC [1] = assay: Xeno-free, feeder-free hESC culture (minimal medium development); assay type: cell-based, human; details: for maintenance of hESCs, Wnt ligand replaced by GSK-3 inhibitor: ID-8 containing medium
Description: (§1) For xeno-free, feeder-free culture, the cells were passaged into 2 μg/cm^2 human Fibronectin (Sigma), 10-20 μg/cm^2 human Laminin (Sigma) and 10 μg/cm^2 human Vitronectin (Invitrogen)-coated culture dishes and cultured in DMEM/F-12 supplement with L-glutamine, a non-essential amino acid, ITS, 20-25 ng/ml Wnt3a and 500 nM ID-8, and with or without 4 ng/ml FGF2. The culture medium was changed daily. Some of colonies became detached from the edge region 5 to 7 days after culturing, and then cells were treated with 0.5 mg/ml GRGDTP peptides (AnaSpec) or 1 μg/ml Echistatin (Sigma) and incubated at 37° C. for 15-45 minutes until almost all of the colony starts to detach from the edge region. The colonies were detached and partially dissociated into clumps by gentle pipetting, and then the clumps were washed with culture medium, collected by centrifugation and seeded on new dishes as 1 to 2 split ratio.
The development of a xeno-free, feeder-free hESC culture system using ID-8 and Wnt activation was investigated. After extensive investigation, the inventors determined that the minimal media required to maintain hESC proliferation and pluripotency consisted of DMEM/F-12 with bFGF (4 ng/ml), Wnt3a (25 ng/ml), ID-8 (0.5 μM) and Insulin-Transferrin-Selenium (ITS). […] The inventors next sought to replace the Wnt ligand with several small molecule GSK-3 inhibitors, BIO (11), CHIR99021 (22) and Kenpaullone (23) in ID-8 containing medium with or without bFGF. […] However, in contrast to Wnt ligand containing medium, hESCs became unstable after few passages, subsequently stabilized and maintained pluripotent cores were surrounded with spontaneously differentiated cells (FIG. 5). Under these conditions, manually selection of undifferentiated hESC colonies from the surrounding cells was required at every passage to maintain pluripotent cultures.
(§2) Initially, cells were maintained on Matrigel, a complex animal derived ECM. However, it would be advantageous to use a defined xeno-component-free ECM. […] Because of the extremely low level of protein in these cultures (i.e. no albumin and matrigel), the hESCs are extremely sensitive to damage caused by the dissociation enzymes normally used for passaging. […] To develop a compatible passaging process, the inventors investigated several integrin antagonists.

HES2 cells = assay: Clonal proliferation assay, HES2 cells in MEF-CM; assay type: cell-based, human; details: for effect on hESC survival, self-renewal and differentiation: supplement in MEF-CM, colony morphology
Description: The clonal proliferation assay was described previously. Briefly, the hES cells in feeder-free culture were dissociated completely with 0.05% trypsin-EDTA.(Invitrogen), and are seeded at 10^4 cells/well in Matrigel-coated 6-well culture plates and cultured in MEF-conditioned medium. Various concentration of Wnt3a (purified in our laboratory or purchased from Peprotech), IQ-1, ID-8 and/or ICG-001 (all three chemicals were synthesized in our laboratory), were supplemented into the culture media at the onset of seeding, then continuously until the end of culturing. For all assays, the cell and colony morphology were examined under microscope, and the replating efficiency was examined by counting the number of colonies after 7 days of culture.
For quantitative PCR analysis, total RNA was isolated from hESCs cultured in feeder-free condition with or without Wnt3a and Id-8 using RNeasy micro kit (Qiagen). RT was performed with Omniscript (Qiagen) and quantitative RT-PCR was then performed, using each gene-specific primer/probe mix (TaqMan Gene Expression Assays), TaqMan 2× Master Mix, and ABI PRISM 7900 Sequence Detection system (Applied Biosystems, CA) according manufacture's protocol. The PCR data was analyzed by delta/delta OT method and normalized with PPIA expression.
The hESC colonies were fixed with 4% paraformaldehyde, and alkaline phosphatase (ALP) activity was determined with a Vector Blue Alkaline Phosphatase Substrate Kit (Vector Laboratories, CA). Immunostaining was carried out with the following primary antibodies: TRA-1-60 and TRA-1-80 (Santa Cruz Biotechnology, CA), anti-stage specific embryonic antigen (SSEA)-3 and -4 (Developmental Studies Hybridoma Bank at the University of Iowa), anti-OCT-3 (clone C-10, Santa Cruz Biotechnology, CA), or goat anti-Nanog (R&D systems, MN). Then, samples were incubated with Alexa Fluor 488- or 594-conjugated (Molecular Probes, NY), then detected with indirect immunofluorscence microscopy.
The effects of canonical Wnt ligand, Wnt3a and several small molecule Wnt signaling modulators in a clonal proliferation assay were investigated first (9) (FIG. 3A). When HES2 cells (2) were dissociated into single cells and seeded on Matrigel-coated plates in mouse embryonic fibroblast-conditioned medium (MEF-CM)(20), the colony forming efficiency was ˜0.6% (replating efficiency: colony number/seeded cell number). Supplementation with Wnt3a enhanced colony formation (˜1% at 100 ng/ml). The colonies were larger and consisted of more cells. […] ID-8, which was identified in the same screen as IQ-1 (21), also enhances the β-catenin/CBP association and increased hESC survival (˜1.1% at 0.5 μM). […] To examine the scope of this effect in hESC, clonal proliferation assays were performed with the additional hESC lines, HES3 (2) and H9 (1) (FIG. 3H).

DYRK2 = molecular target: T1, DYRK2 (Homo sapiens, UniProt Q92630); assay: ID-8 affinity chromatography / pull-down with biotinylated ID-8, competition by free ID-8; assay type: binding; details: cell lysates; competition with free ID-8
T1 construct: endogenous in cells
T1 sequence (Q92630 1-601): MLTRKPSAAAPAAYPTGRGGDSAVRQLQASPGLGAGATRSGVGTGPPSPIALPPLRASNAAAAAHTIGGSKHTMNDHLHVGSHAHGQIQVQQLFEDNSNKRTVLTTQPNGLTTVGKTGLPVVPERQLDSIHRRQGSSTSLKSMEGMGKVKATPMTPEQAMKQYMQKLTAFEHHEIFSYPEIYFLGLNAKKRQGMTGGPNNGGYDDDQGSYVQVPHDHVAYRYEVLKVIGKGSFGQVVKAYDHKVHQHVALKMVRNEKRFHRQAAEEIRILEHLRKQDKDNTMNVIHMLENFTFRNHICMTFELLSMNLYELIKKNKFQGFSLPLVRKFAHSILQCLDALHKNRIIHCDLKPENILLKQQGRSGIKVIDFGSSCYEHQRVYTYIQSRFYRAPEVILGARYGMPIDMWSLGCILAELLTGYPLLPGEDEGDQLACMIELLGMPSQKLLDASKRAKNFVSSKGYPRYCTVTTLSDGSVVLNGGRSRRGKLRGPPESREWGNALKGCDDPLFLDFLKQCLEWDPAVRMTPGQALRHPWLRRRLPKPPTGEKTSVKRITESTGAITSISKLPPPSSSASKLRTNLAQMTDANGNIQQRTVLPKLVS
Description: (§3) The cells were washed twice with 5 mL of ice-old PBS and scraped using 1 mL of PBS containing protease inhibitor cocktail (Calbiochem 539137). The cells were collected by centrifugation and the cell pellet was frozen and stocked with liquid nitrogen. Total 2 g of cell pellet was thawed on ice and then suspended in 20 mL of chilled M-Per (Pierce 78501) buffer containing 1 mM DTT and the protease inhibitor cocktail. The cell suspension was mixed and lysed on a nutator (BD Diagnostics) for 30 minutes at 4° C. The lysate was then centrifuged at 10,000 rpm for 30 minutes at 4° C., and the supernatant was divided into two equal aliquots in 50 mL centrifuge tubes. […]
(§4) After pre-treatment with free competitor ID-8 or DMSO control, the streptayidin-sepharose bound with biotinylated ID-8 was applied on the lysates. […] The specific bands lost by competitor free ID-8 was analyzed by LC/MS (LTQ-XL, Thermo Scientific).
(§5) The elution was also analyzed by or western blotting with specific antibodies against DYRK1a (Cell Signaling 2771), DYRK2 (Abeam ab37912), DYRK3 (Santa Cruz sc-66868), DYRK4 (Abeam ab37911), or HIP2K (Santa Cruz sc-100383).
(§6) ID-8 (FIG. 4A) can enhance β-catenin/CBP-mediated transcription, however, its direct molecular target(s) remained unidentified. […] To confirm this, the inventors designed miRNA to target the DYRK family and evaluated them after transfection by immunoblotting (FIG. 4D-E). […]

DYRK4 = molecular target: T2, DYRK4 (Homo sapiens, UniProt Q9NR20); assay: ID-8 pull-down, western blotting with DYRK family antibodies; assay type: binding; details: western blotting of precipitated proteins
T2 construct: endogenous in cells
T2 sequence (Q9NR20 1-520): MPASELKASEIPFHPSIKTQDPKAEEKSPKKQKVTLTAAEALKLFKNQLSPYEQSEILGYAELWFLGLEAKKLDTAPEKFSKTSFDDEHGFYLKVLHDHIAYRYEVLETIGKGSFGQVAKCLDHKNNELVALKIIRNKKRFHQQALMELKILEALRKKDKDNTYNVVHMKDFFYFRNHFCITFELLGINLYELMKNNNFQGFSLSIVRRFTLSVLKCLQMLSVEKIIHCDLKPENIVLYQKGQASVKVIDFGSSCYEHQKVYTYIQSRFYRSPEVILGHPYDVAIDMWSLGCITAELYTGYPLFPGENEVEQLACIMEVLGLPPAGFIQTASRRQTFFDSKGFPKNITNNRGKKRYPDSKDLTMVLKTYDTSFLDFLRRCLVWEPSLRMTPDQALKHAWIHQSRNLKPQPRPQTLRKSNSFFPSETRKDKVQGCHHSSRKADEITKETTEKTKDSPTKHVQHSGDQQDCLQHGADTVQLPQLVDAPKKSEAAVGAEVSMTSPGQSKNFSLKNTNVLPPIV
Description: as §3, §4, §5, §6

hESC [2] = assay: Passaging by integrin antagonists (colony detachment); assay type: cell-based, human; details: xeno-free medium, FLV-coated dishes
Description: as §1, §2

Cc1c[nH]c(-c2cnc(NCCNc3ccc(C#N)cn3)nc2-c2ccc(Cl)cc2Cl)n1 [CHIR90021]
maintenance of hESCs, Wnt ligand replaced by GSK-3 inhibitor (hESC [1]; 0.2 μM plus bFGF): could maintain hESCs

O=C1[C@H](Cc2ccc(O)cc2)N2C(=O)CCN(C(=O)NCc3ccccc3)[C@H]2CN1Cc1cccc2ccccc12 [ICG-001]
effect on hESC survival, self-renewal and differentiation (HES2 cells): strongly induced cell differentiation and death

COc1ccc(-n2c(C)c([N+](=O)[O-])c3ccc(O)cc32)cc1 [ID-8]
replating efficiency (colony number/seeded cell number), hESC survival (HES2 cells; ID-8 at 0.5 μM, single cells on Matrigel in MEF-CM, control ~0.6%): ~1.1% | binding of DYRK2 to ID-8 affinity column (DYRK2): competed away by free ID-8 | DYRK4 in proteins precipitated with biotinylated ID-8 (DYRK4): identified not only DYRK2 but also DYRK4 | maintenance of hESC colonies (hESC [1]; minimal medium (DMEM/F-12, bFGF, Wnt3a, ITS) without ID-8): no colonies were maintained

CC(=O)c1ccc(NN=C(C(N)=O)C2=NC(C)(C)Cc3ccccc32)cc1 [IQ-1]
effect on Wnt-induced differentiation (HES2 cells; in presence of Wnt3a, MEF-CM): somewhat prevented Wnt-induced differentiation | effect on hESC survival, self-renewal and differentiation (HES2 cells): did not significantly affect hESC self-renewal by itself

O=C1Cc2c([nH]c3ccc(Br)cc23)-c2ccccc2N1 [Kenpaullone]
maintenance of hESCs, Wnt ligand replaced by GSK-3 inhibitor (hESC [1]; 0.5 μM plus bFGF): could maintain hESCs | maintenance of hESCs, Wnt ligand replaced by GSK-3 inhibitor (hESC [1]; 1.0 μM plus bFGF): could maintain hESCs | maintenance of hESCs, Wnt ligand replaced by GSK-3 inhibitor (hESC [1]; 1.0 μM without bFGF): could maintain hESCs

Echistatin
colony detachment and passage of hESC (hESC [2]): effectively caused colony detachment

bFGF: basic fibroblast growth factor, recombinant FGF2 (Peprotech)
hESC morphology and proliferation (hESC [1]; bFGF removed from minimal medium): proliferation was significantly diminished

B1: Wnt3a: canonical Wnt ligand protein, purified in the laboratory or purchased from Peprotech (protein, UniProt P56704 19-352, looked up)
Protein Wnt-3a: SYPIWWSLAVGPQYSSLGSQPILCASIPGLVPKQLRFCRNYVEIMPSVAEGIKIGIQECQHQFRGRRWNCTTVHDSLAIFGPVLDKATRESAFVHAIASAGVAFAVTRSCAEGTAAICGCSSRHQGSPGKGWKWGGCSEDIEFGGMVSREFADARENRPDARSAMNRHNNEAGRQAIASHMHLKCKCHGLSGSCEVKTCWWSQPDFRAIGDFLKDKYDSASEMVVEKHRESRGWVETLRPRYTYFKVPTERDLVYYEASPNFCEPNPETGSFGTRDRTCNVSSHGIDGCDLLCCGRGHNARAERRREKCRCVFHWCCYVSCQECTRVYDVHTCK
replating efficiency (colony number/seeded cell number) (HES2 cells; Wnt3a at 100 ng/ml, single cells on Matrigel in MEF-CM, control ~0.6%): ~1% | effect on hESC survival, self-renewal and differentiation (HES2 cells): enhances hESC survival and proliferation but also induces differentiation
